This is an account of results in ChEMBL document CHEMBL1122319, “Substituted (2-phenoxyphenyl)acetic acids with antiinflammatory activity. 1” (J Med Chem, 1983).

The subject of the assay is Rattus norvegicus. Kind of assay: Reduction in paw swelling at 100 mg/kg po dose in rat using adjuvant arthritis test. The format is functional.
On to `Cc1cc(Oc2ccc(Cl)cc2CC(=O)O)cc(C)c1Cl`, for which the Reduction turned out to be 23.

For the compound `CCCCCCCCc1ccc(Oc2ccc(C)cc2CC(=O)O)c(Cl)c1`, the Reduction is 13%.

For the compound `O=C(O)Cc1cc(Cl)ccc1Oc1ccc(O)cc1Cl`, the Reduction came out at 36.

Take `COc1ccc(Oc2ccc(Cl)cc2CC(=O)O)c(Cl)c1`: the Reduction worked out at 18.

Turning to `CCCCCCc1ccc(Oc2ccc(C)cc2CC(=O)O)c(Cl)c1`, the Reduction is 5.

Turning to `O=C(O)Cc1ccccc1Oc1ccc([N+](=O)[O-])cc1[N+](=O)[O-]`, the Reduction is recorded as 0%.

For the compound `Cc1ccc(Oc2ccccc2F)c(CC(=O)O)c1`, the Reduction came out at 24.

On to `O=C(O)Cc1cc(Cl)ccc1Oc1ccccc1F`, for which the Reduction is recorded as 21.

Regarding `O=C(O)Cc1ccccc1Oc1ccc(Cl)c(Cl)c1`, the Reduction was determined as 20.

With `CCCCCCCCCCc1ccc(Oc2ccc(C)cc2CC(=O)O)c(Cl)c1`, the Reduction is listed as 9%.

`Cc1ccc(Oc2cc(O)c(C)cc2CC(=O)O)c(Cl)c1`: the Reduction was found to be 12.

Consider `Cc1ccc(Oc2ccccc2C(F)(F)F)c(CC(=O)O)c1`, for which the Reduction worked out at 0.

Consider `CC(C(=O)O)c1ccccc1Oc1ccc(Cl)cc1Cl` (stereo not drawn), for which the Reduction is 0.

Take `Cc1ccc(Oc2c(Cl)cccc2Cl)c(CC(=O)O)c1`: the Reduction was 16.

With `Nc1ccc(Oc2ccccc2CC(=O)O)c(N)c1`, the Reduction is reported as 0%.

Turning to `Cc1ccc(Oc2cc(C)c(Cl)cc2C)c(CC(=O)O)c1`, the Reduction amounted to 10.

Take `Cc1ccc(Oc2ccc(Cl)cc2C)c(CC(=O)O)c1`: the Reduction is listed as 17.

With `CCCCc1ccc(Cl)c(Oc2ccc(C)cc2CC(=O)O)c1`, the Reduction stood at 5.

Turning to `O=C(O)Cc1ccccc1Oc1c(Cl)cc(Cl)cc1Cl`, the Reduction is reported as 23.

Regarding `Cc1ccc(Oc2ccc(Cl)cc2CC(=O)O)c(C)c1`, the Reduction turned out to be 22.

As for `O=C(O)Cc1ccccc1Oc1ccccc1C(F)(F)F`, the Reduction was 0.

As for `O=C(O)Cc1ccccc1Oc1cc(Cl)c(Cl)cc1Cl`, the Reduction came to 17.

For the compound `Cc1ccc(Oc2ccccc2CC(=O)O)c(Cl)c1`, the Reduction was found to be 21.

With `O=C(O)c1ccccc1Oc1ccc(Cl)cc1Cl`, the Reduction worked out at 18.

With `Cc1ccc(Oc2ccccc2Cl)c(CC(=O)O)c1`, the Reduction came out at 12.

`Cc1ccc(Oc2ccc(C)cc2CC(=O)O)c(C)c1`: the Reduction was determined as 20.

In the case of `Cc1cc(Oc2ccccc2CC(=O)O)c(Cl)cc1Cl`, the Reduction is 19.

Consider `CCc1ccc(Oc2ccc(C)cc2CC(=O)O)c(CC)c1`, for which the Reduction is recorded as 8.

For `O=C(O)Cc1ccccc1Oc1ccccc1`, the Reduction stood at 0.

For `Cc1ccc(Oc2cc(C)c(Cl)cc2C(C)C)c(CC(=O)O)c1`, the Reduction came out at 3.

Consider `O=C(O)Cc1cc(Cl)ccc1Oc1ccccc1Cl`, for which the Reduction worked out at 0.

Regarding `COc1ccc(Oc2ccc(Cl)cc2Cl)c(CC(=O)O)c1`, the Reduction turned out to be 3.

Take `Cc1cc(Cl)c(Oc2ccc(Cl)cc2CC(=O)O)cc1C`: the Reduction came to 22.

Regarding `O=C(O)Cc1cc([N+](=O)[O-])c([N+](=O)[O-])cc1Oc1ccc(Cl)cc1Cl`, the Reduction is on record as 8%.

As for `CCCCOc1ccc(CC(=O)O)c(Oc2ccc(C)cc2Cl)c1`, the Reduction worked out at 0.

With `Cc1ccc(Oc2ccccc2CC(=O)O)c(C)c1`, the Reduction came to 20.

For `Cc1ccc(Oc2ccc(O)cc2CC(=O)O)c(Cl)c1`, the Reduction was found to be 10.

Turning to `O=C(O)Cc1ccccc1Oc1ccc([N+](=O)[O-])cc1Cl`, the Reduction is on record as 19%.

As for `Cc1ccc(Oc2ccc(N)cc2CC(=O)O)c(Cl)c1`, the Reduction was 3.

`O=C(O)Cc1cc(Cl)ccc1Oc1ccc(Cl)cc1`: the Reduction is 21.

As for `CN(C)c1ccc(Oc2ccc(Cl)cc2Cl)c(CC(=O)O)c1`, the Reduction is given as 5.

In the case of `O=C(O)Cc1ccccc1Oc1cc(Cl)ccc1Cl`, the Reduction was 18.

For the compound `O=C(O)CCc1ccccc1Oc1ccc(Cl)cc1Cl`, the Reduction was found to be 0.
